Assay results as given in ChEMBL document CHEMBL3832064, “DailyMed|setid=5eda246b-ac51-46e7-b473-35937f84ed05 | GLIMEPIRIDE - glimepiride tablet|Perrigo New York Inc”.
Values joined by “and” are separate entries in the source; they are usually repeats but may differ in a detail not shown here. Equal entries are not always repeated.

Key:
Type in all cases: ADME, organism-based
[1] = (§1) Evalaution of pharmacokinetic parameters for Glimepiride following single oral […] of Glimepiride tablets […] to healthy subjects and to patients with type 2 diabetes.; parameters: dose 4 mg, dose 1 mg, dose 2 mg, dose 8 mg, route oral; conditions: human, in vivo, dosed compound id 27, dosed compound name GLIMEPIRIDE, regimen Single dose, tissue Plasma
Homo sapiens [2] = test: as §1; parameters: dose 4 mg, dose 1 mg, dose 2 mg, dose 8 mg, route oral; conditions: in vivo, po, dosed compound id 27, dosed compound name GLIMEPIRIDE, regimen Single dose, tissue Plasma
[3] = (§2) Evalaution of pharmacokinetic parameters for Glimepiride following multiple doses of Glimepiride […] to healthy subjects and to patients with type 2 diabetes; parameters: dose 4 mg, dose 8 mg, route oral; conditions: human, in vivo, dosed compound id 27, dosed compound name GLIMEPIRIDE, regimen Multiple dose, study dosing duration 10 days, tissue Plasma
Homo sapiens [4] = organism: Homo sapiens; test: as §2; parameters: dose 4 mg, dose 8 mg, route oral; conditions: in vivo, po, dosed compound id 27, dosed compound name GLIMEPIRIDE, regimen Multiple dose, study dosing duration 10 days, tissue Plasma
[5] = Pharmacokinetic parameters evaluated following intravenous […] of Glimepiride […] to normal subjects.; conditions: human, in vivo, dosed compound id 27, dosed compound name GLIMEPIRIDE, tissue Plasma
[6] = dose 1-8 mg, study dosing duration 1 day

- AUC ([1]; po, gender male and female, read-out: AUC(0-last)): 339 ng·h/mL
- half-life ([1]; dose 1 mg, gender male and female, route oral): 3.1 h
- CL/F ([1]; dose 1-8 mg, route oral): 52.1 mL/min
- Tmax ([1]; dose 1-8 mg, route oral): 2.4 h
- Vd/F ([1]; dose 1-8 mg, route oral): 21.8 L
- t1/2 (Homo sapiens [2]; dose 1 mg, gender male and female): 5.3 h
- CL/F (Homo sapiens [2]; [6]): 48.5 mL/min
- Tmax (Homo sapiens [2]; [6]): 2.5 h
- Vd/F (Homo sapiens [2]; [6]): 19.8 L
- t1/2 (Homo sapiens [2]; [6]): 5 h
- AUC(0-last) (Homo sapiens [2]; gender male and female): 315.2 ng·h/mL
- Cmax (Homo sapiens [2]; gender male and female): 102.4 ng/mL and 103.2 ng/mL
- Cmax (Homo sapiens [2]; study dosing duration 1 day): 352 ng/mL and 591 ng/mL
- Cmax ([3]; po): 578 ng/mL
- CL/F ([3]; dose 1-8 mg, route oral): 52.7 mL/min
- Tmax ([3]; dose 1-8 mg, route oral): 2.8 h
- Vd/F ([3]; dose 1-8 mg, route oral): 37.1 L
- half-life ([3]; dose 1-8 mg, route oral): 9.2 h
- Cmax (Homo sapiens [4]): 309 ng/mL
- Vd [5]: 8.8 L
- clearance [5]: 47.8 mL/min
SMILES: CCC1=C(C)CN(C(=O)NCCc2ccc(S(=O)(=O)NC(=O)N[C@H]3CC[C@H](C)CC3)cc2)C1=O [GLIMEPIRIDE]
